Data from ChEMBL document CHEMBL1201862, “PubChem BioAssay data set” (2004).
Active and inactive are the calls of the source.

Tests used:
[1] = inhibitors of clade B AD8 Env fusion, dose response, cell-based, cherry-pick (AID 652062); format: functional;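 further: luciferase signal from cell-cell fusion driven by HIV-1 clade B AD8 Env; potency is for inhibitors of fusion seen as a drop in luminescence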
[2] = off-target signal loss in HeLa-CEM21 co-culture – HeLa F-luc CTL cells, cherry-picked, counter-screen for HIV-1 Env fusion inhibitor project, dose response (AID 652040); format: functional, cell-based;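 further: potency for signal decrease marking cytotoxic or nonspecific inhibition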
[3] = MC4R antagonists, dose response, counter-screen for LGR2 antagonist project, cell-based, plate reader, cherry pick (AID 743444); format: functional;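 further: transfected HEK 293 cells stimulated with alpha-MSH peptide; potency of inhibitors of the alpha-MSH evoked signal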
[4] = HepG2 cell cytotoxicity, dose response, cytotoxicity control, plate reader, cherry-pick, antagonist series (AID 743416); format: functional, cell-based
[5] = ZM109 Env clade C HIV-1 fusion inhibitors, dose response, HeLa effector, CEM target cells, luciferase, cherry-pick (AID 652058); format: functional, cell-based
[6] = inhibitors of HIV Env-driven cell fusion, dose response, cherry-pick (AID 652057); format: functional, cell-based
[7] = A549 cell cytotoxicity, dose response, cytotoxicity control, plate reader, cherry-pick, antagonist series (AID 743412); format: functional, cell-based
[8] = HEK293 cell cytotoxicity, dose response, cytotoxicity control, plate reader, cherry-picked samples (AID 743446); format: functional, cell-based
[9] = CEM21 lymphoblast cell cytotoxicity, dose response, cytotoxicity control for viral fusion inhibitor project, CellTiter-Glo luminescence, cherry-picked (AID 652042); format: functional, cell-based;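 further: potency for signal decrease meaning cytotoxicity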
[10] = LGR2 antagonists, dose response, cell-based, HEK293, CRE-luciferase reporter, cherry pick, set 2 (AID 743343); format: functional;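 further: transfected cells were stimulated with diluted bursicon conditioned medium after compound addition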
[11] = NIH:OVCAR-3 ovarian cancer cell cytotoxicity, dose response, PAX8 inhibitor project, plate reader, dry powder samples (AID 743044); format: functional, cell-based
[12] = cytotoxicity in OVCAR8 ovarian cancer cells, dose response, PAX8 project, cell-based, plate reader, dry powder samples (AID 743197); format: functional; settings: OVCAR-8
Paired box protein Pax-8 = Paired box protein Pax-8 (Homo sapiens, UniProt Q06710); assay: inhibitors of PAX8-driven TPO luciferase reporter, dose response, RMG-I cells, cherry-pick (AID 687027); format: functional, cell-based;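 further: luciferase reporter driven by Pax8 target thyroperoxidase promoter measured by SteadyGlo luminescence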
Paired box protein Pax-8, sequence (Q06710 whole entry): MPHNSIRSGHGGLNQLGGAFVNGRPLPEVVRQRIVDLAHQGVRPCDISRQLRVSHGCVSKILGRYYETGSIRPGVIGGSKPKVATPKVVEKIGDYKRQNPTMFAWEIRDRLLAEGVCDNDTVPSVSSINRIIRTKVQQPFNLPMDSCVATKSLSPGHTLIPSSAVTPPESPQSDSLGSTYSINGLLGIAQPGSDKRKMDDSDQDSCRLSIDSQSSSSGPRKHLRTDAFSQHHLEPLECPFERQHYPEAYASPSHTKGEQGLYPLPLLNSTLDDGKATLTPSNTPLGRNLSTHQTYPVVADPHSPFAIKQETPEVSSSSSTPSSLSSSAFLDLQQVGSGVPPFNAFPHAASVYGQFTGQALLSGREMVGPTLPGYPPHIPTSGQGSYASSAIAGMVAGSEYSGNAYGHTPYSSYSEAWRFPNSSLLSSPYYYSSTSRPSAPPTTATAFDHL

[13] = HEK293T cytotoxicity, dose response, cytotoxicity control for miR-122 modulator project, cell-based, activator set, cherry-pick (AID 720690); format: functional;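 further: HEK293T human cells scored for general mammalian cytotoxicity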
[14] = A2780 ovarian cancer cell cytotoxicity, dose response, cytotoxicity control, plate reader, dry powder samples (AID 743046); format: functional, cell-based
[15] = non-specific cell cytotoxicity, dose response, cytotoxicity control for PAX8 inhibitor project, plate reader, dry powder samples (AID 743021); format: functional, cell-based
[16] = IGROV1 ovarian cancer cell cytotoxicity, dose response, PAX8 inhibitor project, plate reader, dry powder samples (AID 743043); format: functional, cell-based; settings: IGROV-1
[17] = HEK293T cytotoxicity, dose response, cytotoxicity control for miR-122 modulator project, cell-based, inhibitor set, cherry-pick, set 2 (AID 720697); format: functional
[18] = T. cruzi growth inhibition in host cells, dose response, cell-based, plate reader, dry powder, set 2 (AID 652275); format: functional
Protein Tat = molecular target: T1, Protein Tat (Human immunodeficiency virus type 1 group M subtype B (isolate HXB2)(HIV-1), UniProt P04608); format: functional;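 further: tat binding to TAR RNA read out by fluorescence polarization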
T1 sequence (P04608 whole entry): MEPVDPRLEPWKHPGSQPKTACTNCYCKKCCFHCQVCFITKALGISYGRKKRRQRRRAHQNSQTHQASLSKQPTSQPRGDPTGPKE

INS1 = assay: beta cell apoptosis inhibitors, cytokine rescue, dose response, luminescence, retest (AID 449756); format: functional, cell-based; settings: Rattus norvegicus;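 further: cell death triggered by IL-1 beta plus TNF-alpha plus IFN-gamma mixture; protective hits raise ATP signal compared with cytokine alone wells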
[19] = Luminescence Cell-Based Dose Retest to Confirm Inhibitors of Cancer Stem Cells. [Related pubchem assays (depositor defined):AID2717, AID2721]; format: functional; settings: Homo sapiens
[20] = molecular target: T2, Ubiquitin-conjugating enzyme E2 N (Homo sapiens, UniProt P61088); format: functional;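 further: Dose-response confirmation in a TR-FRET assay detecting UBC13-driven polyubiquitin chain formation, inhibition measured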
T2 sequence (P61088 whole entry): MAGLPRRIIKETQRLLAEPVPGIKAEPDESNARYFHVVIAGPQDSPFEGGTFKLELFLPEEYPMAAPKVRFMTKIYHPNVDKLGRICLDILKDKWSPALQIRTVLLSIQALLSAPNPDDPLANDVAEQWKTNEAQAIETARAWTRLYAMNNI

[21] = molecular target: Arf-GAP with SH3 domain, ANK repeat and PH domain-containing protein 1 (Homo sapiens, UniProt Q9ULH1); format: functional;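 further: biochemical fluorescence polarization dose–response screen measuring inhibition of ASAP1; ASAP1 GAP domain stimulating GTP hydrolysis by truncated human ARF1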
Arf-GAP with SH3 domain, ANK repeat and PH domain-containing protein 1, sequence (Q9ULH1 whole entry, the tested form may be a part): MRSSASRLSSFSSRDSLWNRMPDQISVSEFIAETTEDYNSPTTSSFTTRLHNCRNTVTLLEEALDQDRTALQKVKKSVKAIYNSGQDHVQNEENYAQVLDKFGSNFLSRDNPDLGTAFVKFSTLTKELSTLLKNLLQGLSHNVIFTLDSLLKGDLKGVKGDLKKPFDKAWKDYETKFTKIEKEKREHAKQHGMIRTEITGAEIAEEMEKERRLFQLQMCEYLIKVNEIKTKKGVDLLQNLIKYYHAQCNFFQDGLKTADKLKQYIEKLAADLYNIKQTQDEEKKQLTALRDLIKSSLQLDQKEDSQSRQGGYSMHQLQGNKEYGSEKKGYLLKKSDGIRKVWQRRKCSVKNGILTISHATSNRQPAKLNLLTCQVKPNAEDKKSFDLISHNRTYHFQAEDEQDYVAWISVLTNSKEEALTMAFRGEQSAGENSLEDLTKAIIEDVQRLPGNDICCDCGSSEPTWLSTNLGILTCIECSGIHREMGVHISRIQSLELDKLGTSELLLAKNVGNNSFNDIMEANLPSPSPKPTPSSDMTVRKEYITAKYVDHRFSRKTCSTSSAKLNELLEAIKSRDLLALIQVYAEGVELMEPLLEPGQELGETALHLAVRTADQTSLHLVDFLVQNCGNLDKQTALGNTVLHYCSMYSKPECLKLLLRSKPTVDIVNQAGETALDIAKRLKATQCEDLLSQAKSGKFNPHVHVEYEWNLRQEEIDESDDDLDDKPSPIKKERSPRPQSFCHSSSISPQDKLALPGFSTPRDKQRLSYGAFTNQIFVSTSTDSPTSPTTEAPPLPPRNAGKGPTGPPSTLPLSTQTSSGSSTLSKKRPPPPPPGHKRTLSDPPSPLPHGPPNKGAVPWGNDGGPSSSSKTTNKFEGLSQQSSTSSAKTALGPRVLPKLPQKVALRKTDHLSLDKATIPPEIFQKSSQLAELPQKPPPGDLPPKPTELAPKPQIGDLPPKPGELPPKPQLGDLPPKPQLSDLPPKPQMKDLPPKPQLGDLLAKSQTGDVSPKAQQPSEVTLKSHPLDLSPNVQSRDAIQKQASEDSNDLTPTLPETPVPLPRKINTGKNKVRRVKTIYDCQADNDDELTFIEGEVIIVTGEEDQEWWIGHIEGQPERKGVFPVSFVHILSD

[22] = cytotoxicity toward NIH3T3 fibroblasts, dose response, counter-screen, cell-based, ATP luminescence, mouse fibroblasts (AID 2010); format: functional;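 further: cells exposed to compound for about 90 hours before reading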
[23] = inhibitors of intracellular T. cruzi replication, confirmation, NIH3T3 host cells, beta-gal luminescence (AID 2044); format: functional, cell-based;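 further: intracellular parasites grown in NIH/3T3 mouse fibroblasts as host cells; luminescent beta-galactosidase reporter signal from transgenic T. cruzi replicating inside host cells; inhibitors lower the luminescence signal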
[24] = Dose-response inhibition of insulin secretion in a rat insulinoma line at 5 mM glucose (AID 1117331); format: functional, cell-based; settings: INS-1E

**Q.** With CC(C)c1ccc(OCCCN2CCC(C(O)(c3ccccc3)c3ccccc3)CC2)cc1 as the molecule, how does the AC50 [1] read?
**A.** 9.48 µM (active)

**Q.** And the AC50 [2]?
**A.** 7.88 µM (active)

**Q.** What about the AC50 [3] of the same molecule?
**A.** 5.65 µM (active)

**Q.** And the AC50 [4]?
**A.** 7.6 µM (active)

**Q.** What about the AC50 [5] of the same molecule?
**A.** 9.88 µM (active)

**Q.** What about the AC50 [6] of the same molecule?
**A.** 9.63 µM (active)

**Q.** What about the AC50 [7] of the same molecule?
**A.** 9.56 µM (active)

**Q.** And the AC50 [8]?
**A.** 14 µM (active)

**Q.** What about the AC50 [9] of the same molecule?
**A.** 7.21 µM (active)

**Q.** What about the AC50 [10] of the same molecule?
**A.** 6.8 µM (active)

**Q.** For C[C@@H]1CN([C@@H](C)CO)S(=O)(=O)c2ccc(C#Cc3ccccc3F)cc2O[C@@H]1CN(C)C(=O)c1ccc2c(c1)OCO2, which AC50 [11] is on record?
**A.** 20.5 µM (active)

**Q.** What about the AC50 [12] of the same molecule?
**A.** > 70 µM (inactive)

**Q.** What about the AC50 (Paired box protein Pax-8) of the same molecule?
**A.** 13.2 µM (active)

**Q.** What about the AC50 [13] of the same molecule?
**A.** 26.9 µM (active)

**Q.** With O=C(Cc1cccnc1)N1CCCCN2[C@H](C1)[C@H](c1ccc(/C=C/c3ccccc3)cc1)[C@@H]2CO as the molecule, how does the AC50 [11] read?
**A.** 5.01 µM (active)

**Q.** What about the AC50 [12] of the same molecule?
**A.** 41.2 µM (active)

**Q.** What about the AC50 [14] of the same molecule?
**A.** 25.1 µM (active)

**Q.** And the AC50 [15]?
**A.** 50.6 µM (active)

**Q.** What about the AC50 (Paired box protein Pax-8) of the same molecule?
**A.** 4.42 µM (active)

**Q.** What does the source list for C[C@@H]1CCCCO[C@H](CN(C)Cc2ccc(C(F)(F)F)cc2)[C@H](C)CN([C@@H](C)CO)C(=O)c2cc(NC(=O)Nc3ccc4c(c3)OCO4)ccc2O1?
**A.** AC50 [11]: 48.7 µM (active); AC50 [12]: 36.8 µM (active); AC50 [16]: 40.9 µM (active); AC50 [14]: 42.2 µM (active); AC50 (Paired box protein Pax-8): 3.34 µM (active)

**Q.** With Cc1cccc(S(=O)(=O)N2CC[C@@H]3[C@H]2c2cc(C4=CCCCC4)ccc2N[C@@H]3CO)c1 as the molecule, how does the AC50 [12] read?
**A.** > 70 µM (inactive)

**Q.** And the AC50 [16]?
**A.** 55.6 µM (active)

**Q.** What about the AC50 (Paired box protein Pax-8) of the same molecule?
**A.** 10.8 µM (active)

**Q.** For CO[C@@H]1CN(C)C(=O)c2ccc(NC(C)=O)cc2OC[C@@H](C)N(C(=O)c2ccccc2F)C[C@H]1C, which AC50 [17] is on record?
**A.** 0.147 µM (active)

**Q.** With O=C(Cc1ccccn1)N1CCCCN2[C@@H](CO)[C@H](c3ccc(-c4ccccc4)cc3)[C@@H]2C1 as the molecule, how does the AC50 [18] read?
**A.** 0.551 µM (active)

**Q.** For Cc1nccn1CC(=O)N/N=C/c1ccc(O)c(O)c1, which IC50 (Protein Tat) is on record?
**A.** 39 µM (inconclusive)

**Q.** With COc1ccc(C(=O)N/N=C/c2cccnc2)cc1 as the molecule, how does the IC50 (Protein Tat) read?
**A.** > 100 µM (active)

**Q.** Which AC50 (INS1) does the source give for OCCNc1nc(Nc2ccc(Cl)c(Cl)c2)nc2ccccc12 here?
**A.** 13.4 µM (active)

**Q.** And the AC50 [19]?
**A.** 2.43 µM (active)

**Q.** What about the IC50 [20] of the same molecule?
**A.** > 20 µM (inactive)

**Q.** And the IC50 [21]?
**A.** 55.3 µM (inactive)

**Q.** What about the EC50 [22] of the same molecule?
**A.** > 30 µM (not active)

**Q.** And the EC50 [23]?
**A.** 0.464 µM (active)

**Q.** Which IC50 [24] does the source give for CN1C(=O)CC[C@H]1c1cccnc1 [COTININE] here?
**A.** > 33.3 µM (inactive)
